How the values were obtained:
Test in all cases: NCI 60 cell one-dose screening (SRB)
Assay type in all cases: cell-based
[1] = tested on: HT29; settings: Homo sapiens, HT-29; HT29, Colon Cancer; single dose 10 µM, 48 h; read-out: Percentage of cellular growth inhibition
Method: (§1) The 60 cancerous cell panel screening was performed following the Developmental Therapeutics Program (DTP) of the National Cancer Institute (NIH-NCI), USA. A single dose of 10 µM was used to perform the screening at 48 h incubation and the results were achieved as cancerous cell growth percentage relative to the no-drug control that was converted to an inhibition percentage by subtracting from 100.The cancerous cell lines were grown in RPMI 1640 medium containing 5% foetal bovine serum and 2 mM L-glutamine at 37 °C, 5% CO2, 95% air and 100% relative humidity for 24 h prior to addition of the tested compounds. After 24 h, two plates of each cell line were fixed in situ with TCA to represent a measurement of the cell population for each cell line at the time of drug addition (Tz). Compounds were dissolved in DMSO at 400-fold the desired final maximum test concentration and stored frozen prior to use. At the time of drug addition, an aliquot of frozen concentrate was thawed and diluted to twice the desired final maximum test concentration with complete medium containing 50 µg/mL gentamicin. Aliquots of 100 µL of the compounds dilution was added to the appropriate micro titre wells already containing 100 µL of medium, resulting in the required final drug concentrations of 10 µM. Following compounds addition, the plates were incubated for an additional 48 h at 37 °C, 5% CO2, 95% air, and 100% relative humidity. For adherent cells, the assay was terminated by the addition of cold TCA. Cells were fixed in situ by the gentle addition of 50 µL of cold 50% (w/v) TCA (final concentration, 10% TCA) and incubated for 60 min at 4 °C. The supernatant was discarded, and the plates were washed five times with tap water and air dried. Sulphorhodamine B (SRB) solution (100 µL) at 0.4% (w/v) in 1% acetic acid is added to each well, and plates are incubated for 10 min at room temperature. After staining, unbound dye was removed by washing five times with 1% acetic acid and the plates were air dried. Bound stain was subsequently solubilised with 10 mM trizma base, and the absorbance was read on an automated plate reader at a wavelength of 515 nm. For suspension cells, the methodology was the same except that the assay was terminated by fixing settled cells at the bottom of the wells by gently adding 50 µL of 80% TCA (final concentration, 16% TCA). Using the seven absorbance measurements [time zero, (Tz), control growth, I, and test growth in the presence of drug at the five concentration levels (Ti)], the percentage growth was calculated as: [(Ti−Tz)/(C−Tz)]×100 for concentrations for which Ti>/=Tz [(Ti−Tz)/Tz]×100 for concentrations for which Ti<Tz.

[2] = tested on: IGROV1; settings: Homo sapiens, IGROV-1; IGROV1, Ovarian Cancer; single dose 10 µM, 48 h; read-out: Percentage of cellular growth inhibition
Method: as §1

[3] = tested on: UACC-62; settings: Homo sapiens; UACC-62, Melanoma; single dose 10 µM, 48 h; read-out: Percentage of cellular growth inhibition
Method: as §1

[4] = tested on: HL-60(TB); settings: Homo sapiens, Leukemia, single dose 10 µM, 48 h, read-out: Percentage of cellular growth inhibition
Method: as §1

[5] = tested on: MDA-MB-468; settings: Homo sapiens; MDA-MB-468, Breast Cancer; single dose 10 µM, 48 h; read-out: Percentage of cellular growth inhibition
Method: as §1

[6] = tested on: BT-549; settings: Homo sapiens; BT-549, Breast Cancer; single dose 10 µM, 48 h; read-out: Percentage of cellular growth inhibition
Method: as §1

[7] = tested on: SK-MEL-28; settings: Homo sapiens; SK-MEL-28, Melanoma; single dose 10 µM, 48 h; read-out: Percentage of cellular growth inhibition
Method: as §1

[8] = tested on: SNB-19; settings: Homo sapiens; SNB-19, CNS Cancer; single dose 10 µM, 48 h; read-out: Percentage of cellular growth inhibition
Method: as §1

[9] = tested on: OVCAR-4; settings: Homo sapiens; OVCAR-4, Ovarian Cancer; single dose 10 µM, 48 h; read-out: Percentage of cellular growth inhibition
Method: as §1

[10] = tested on: TK-10; settings: Homo sapiens; TK-10, Renal Cancer; single dose 10 µM, 48 h; read-out: Percentage of cellular growth inhibition
Method: as §1

[11] = tested on: OVCAR-8; settings: Homo sapiens; OVCAR-8, Ovarian Cancer; single dose 10 µM, 48 h; read-out: Percentage of cellular growth inhibition
Method: as §1

[12] = tested on: ACHN; settings: Homo sapiens, Renal Cancer, single dose 10 µM, 48 h, read-out: Percentage of cellular growth inhibition
Method: as §1

[13] = tested on: NCI/ADR-RES; settings: Homo sapiens, Ovarian Cancer, single dose 10 µM, 48 h, read-out: Percentage of cellular growth inhibition
Method: as §1

[14] = tested on: SF-539; settings: Homo sapiens; SF-539, CNS Cancer; single dose 10 µM, 48 h; read-out: Percentage of cellular growth inhibition
Method: as §1

[15] = tested on: CCRF-CEM; settings: Homo sapiens, Leukemia, single dose 10 µM, 48 h, read-out: Percentage of cellular growth inhibition
Method: as §1

[16] = tested on: NCI-H460; settings: Homo sapiens; NCI-H460, Non-Small Cell Lung Cancer; single dose 10 µM, 48 h; read-out: Percentage of cellular growth inhibition
Method: as §1

[17] = tested on: NCI-H322M; settings: Homo sapiens, Non-Small Cell Lung Cancer, single dose 10 µM, 48 h, read-out: Percentage of cellular growth inhibition
Method: as §1

[18] = tested on: HCT-15; settings: Homo sapiens; HCT-15, Colon Cancer; single dose 10 µM, 48 h; read-out: Percentage of cellular growth inhibition
Method: as §1

[19] = tested on: K-562; settings: Homo sapiens, K562; K-562, Leukemia; single dose 10 µM, 48 h; read-out: Percentage of cellular growth inhibition
Method: as §1

[20] = tested on: SN12C; settings: Homo sapiens, Renal Cancer, single dose 10 µM, 48 h, read-out: Percentage of cellular growth inhibition
Method: as §1

[21] = tested on: COLO 205; settings: Homo sapiens; COLO 205, Colon Cancer; single dose 10 µM, 48 h; read-out: Percentage of cellular growth inhibition
Method: as §1

SMILES	inhibition at 10 µM [1]	inhibition at 10 µM [2]	inhibition at 10 µM [3]	inhibition at 10 µM [4]	inhibition at 10 µM [5]	inhibition at 10 µM [6]	inhibition at 10 µM [7]	inhibition at 10 µM [8]	inhibition at 10 µM [9]	inhibition at 10 µM [10]	inhibition at 10 µM [11]	inhibition at 10 µM [12]	inhibition at 10 µM [13]	inhibition at 10 µM [14]	inhibition at 10 µM [15]	inhibition at 10 µM [16]	inhibition at 10 µM [17]	inhibition at 10 µM [18]	inhibition at 10 µM [19]	inhibition at 10 µM [20]	also measured
c1ccc(-c2csc(Nc3cccc(Nc4nc(-c5ccccc5)cs4)c3)n2)cc1 [6a, N^1,N^3-bis(4-phenylthiazol-2-yl)benzene-1,3-diamine]	60.6%	65.9%	49.7%	34.1%	60.8%	68.3%	39.1%	42%	62.4%	31.4%	60.1%	63.8%	73.9%	42.3%	61.4%	73.1%	41.9%	69.5%	73.4%	56.6%	inhibition at 10 µM [21]: 16.5%
Clc1ccc(-c2csc(Nc3cccc(Nc4nc(-c5ccc(Cl)cc5)cs4)c3)n2)cc1 [6c, N^1,N^3-bis(4–(4-chlorophenyl)thiazol-2-yl)benzene-1,3-diamine]	-10.5%	9%	17.4%	14.6%	13.4%	-6.1%	-4.2%	11.5%	8.4%	1.4%	7.7%	14.3%	4.6%	13.9%	10.4%	-2.1%	5%	7.1%	5.8%	1%	inhibition at 10 µM [21]: -7.3%
Fc1ccc(-c2cs/c(=N\c3ccccc3)n2-c2cccc(-n3c(-c4ccc(F)cc4)cs/c3=N\c3ccccc3)c2)cc1 [8b, N,N’-(3,3’-(1,3-phenylene)bis(4–(4-fluorophenyl)thiazole-3(3H)-yl-2(3H)-ylidene))dianiline]	9.9%	12.9%	41%	15.8%	51.2%	-4.1%	1.7%	5.6%	34.7%	-16.6%	12.4%	2.3%	10.2%	-0.9%	35.2%	37.5%	15.2%	21.7%	28.8%	7.5%	inhibition at 10 µM [21]: -0.4%
S=C(Nc1ccccc1)Nc1cccc(NC(=S)Nc2ccccc2)c1 [compound 7, 1,1′-(1,3-phenylene)bis(3-phenylthiourea)]	-26.3%	-3.3%	5.8%	-2.5%	-8.4%	-13.2%	-9.8%	3.4%	-6.6%	-17.5%	4%	-3.8%	-9.3%	-11.5%	56.8%	-16.5%	2.6%	0.8%	9.7%	4.5%	inhibition at 10 µM [21]: -37.6%
Fc1ccc(-c2csc(Nc3cccc(Nc4nc(-c5ccc(F)cc5)cs4)c3)n2)cc1 [6b, N^1,N^3-bis(4–(4-fluorophenyl)thiazol-2-yl)benzene-1,3-diamine]	37.7%	58.2%	42.9%	25.7%	61.4%	36%	23.6%	29.8%	44.3%	5.5%	32.1%	48.2%	36.3%	29.1%	40.9%	59.6%	39.9%	47.5%	64%	52.8%	inhibition at 10 µM [21]: 24.3%
Cc1nc(Nc2cccc(Nc3nc(C)c(N=Nc4ccccc4)s3)c2)sc1N=Nc1ccccc1 [5a, N^1,N^3-bis(4-methyl-5-(phenyldiazenyl)thiazol-2-yl)benzene-1,3-diamine]	2%	52.2%	30.9%	5.5%	29.4%	5.8%	2.5%	42.6%	30.8%	2.9%	33.4%	38.3%	10.2%	15.4%	12.3%	3.2%	22.8%	21%	32.9%	53.9%	inhibition at 10 µM [21]: -4.9%

From publication PMC9897788, “Design, synthesis and cytotoxic evaluation of novel bis-thiazole derivatives as preferential Pim1 kinase inhibitors with in vivo and in silico study” (Journal of Enzyme Inhibition and Medicinal Chemistry, 2023)
